Test results as given in US8728797B2, “Yeast membrane protein expression system and its application in drug screening” (priority 2001, dated 2014).
Marks after values point to notes of the source that are not given here.

Legend:
Pdr5p ATPase = molecular target: T1, Pdr5p ATPase (Saccharomyces cerevisiae, UniProt P33302); experiment: Oligomycin sensitive ATPase activity of AD124567 plasma membranes; assay type: biochemical, S. cerevisiae
T1 construct: plasma membranes from the AD124567 yeast strain overexpressing Pdr5p; endogenous in cells; host or cells: S. cerevisiae AD124567 (pdr1-3, PDR5 intact), plasma membrane fraction
T1 sequence (P33302 whole entry): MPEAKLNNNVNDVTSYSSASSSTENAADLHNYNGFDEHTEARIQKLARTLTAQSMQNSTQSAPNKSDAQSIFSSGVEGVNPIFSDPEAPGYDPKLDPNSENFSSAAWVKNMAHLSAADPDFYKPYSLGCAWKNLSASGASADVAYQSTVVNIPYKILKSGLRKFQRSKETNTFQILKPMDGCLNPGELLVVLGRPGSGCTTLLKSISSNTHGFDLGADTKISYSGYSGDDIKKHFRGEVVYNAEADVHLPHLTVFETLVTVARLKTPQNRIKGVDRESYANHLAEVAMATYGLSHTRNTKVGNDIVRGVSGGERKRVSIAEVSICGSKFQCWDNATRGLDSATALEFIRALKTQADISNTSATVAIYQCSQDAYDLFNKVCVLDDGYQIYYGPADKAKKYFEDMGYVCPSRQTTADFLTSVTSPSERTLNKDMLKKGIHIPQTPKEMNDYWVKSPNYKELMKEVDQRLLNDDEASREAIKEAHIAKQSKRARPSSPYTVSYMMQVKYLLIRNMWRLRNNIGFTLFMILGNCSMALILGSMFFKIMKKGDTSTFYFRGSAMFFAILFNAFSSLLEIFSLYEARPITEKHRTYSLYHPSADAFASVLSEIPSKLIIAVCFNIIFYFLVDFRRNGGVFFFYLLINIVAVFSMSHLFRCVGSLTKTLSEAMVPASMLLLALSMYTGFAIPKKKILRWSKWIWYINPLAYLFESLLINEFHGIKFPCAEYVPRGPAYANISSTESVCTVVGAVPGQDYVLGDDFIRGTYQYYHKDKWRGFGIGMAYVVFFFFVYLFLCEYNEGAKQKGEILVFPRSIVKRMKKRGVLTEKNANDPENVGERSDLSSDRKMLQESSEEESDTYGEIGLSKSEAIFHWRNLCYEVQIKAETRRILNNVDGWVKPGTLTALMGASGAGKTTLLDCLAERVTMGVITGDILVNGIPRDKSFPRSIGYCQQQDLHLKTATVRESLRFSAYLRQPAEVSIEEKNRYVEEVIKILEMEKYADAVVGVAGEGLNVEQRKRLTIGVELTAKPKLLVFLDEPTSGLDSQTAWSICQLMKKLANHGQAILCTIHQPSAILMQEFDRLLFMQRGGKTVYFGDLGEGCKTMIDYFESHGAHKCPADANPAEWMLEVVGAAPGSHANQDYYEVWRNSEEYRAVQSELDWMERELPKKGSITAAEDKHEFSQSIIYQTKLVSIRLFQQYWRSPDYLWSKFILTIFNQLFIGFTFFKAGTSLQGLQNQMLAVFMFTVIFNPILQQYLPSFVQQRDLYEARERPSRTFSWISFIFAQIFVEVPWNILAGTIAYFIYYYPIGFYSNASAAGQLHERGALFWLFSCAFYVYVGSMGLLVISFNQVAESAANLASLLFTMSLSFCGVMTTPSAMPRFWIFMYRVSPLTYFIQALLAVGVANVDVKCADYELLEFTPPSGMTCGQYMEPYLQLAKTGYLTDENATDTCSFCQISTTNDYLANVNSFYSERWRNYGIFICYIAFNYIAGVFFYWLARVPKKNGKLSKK
Description: (A) Inhibition profiles of oligomycin-sensitive Pdr5p ATPase activity by the purified peptides D-NH2-asparagine-tryptophan-tryptophan-lysine-valine-arginine-arginine-arginine-CONH2 (KN0) and its singly substituted Mtr-derivative KN20. (B) Inhibition profile with KN20 on the oligomycin-sensitive Cdr1p ATPase activity of plasma membranes from AD1002 minus the oligomycin-sensitive ATPase activity of plasma membranes from the isogenic AD1-8u^− strain.
Yeast were grown in YEPD, pH 5.5 at 30° C. until they reached late-exponential phase of growth (OD600 nm=7), washed twice in ice-cold distilled water, and incubated on ice for 30 min to minimize glucose-stimulated Pma1p activity. Cells were resuspended in homogenising medium (50 mM Tris pH 7.5, 2 mM EDTA and 1 mM phenylmethylsulfonyl fluoride) and disrupted using a Braun Homogeniser. Cell debris and unbroken cells were removed by centrifuging at 2,000×g at 4° C. for 10 min. A crude membrane fraction was isolated from the cell-free supernatant by centrifuging at 30,000×g at 4° C. for 45 min. Plasma membranes were prepared by centrifugation of the supernatant obtained after selective precipitation of mitochondria at pH 5.2 as described previously (Goffeau, A. and Dufour, J. P., 1988). […] Protein was determined using a micro-Bradford (Bio-Rad Laboratories, Hercules, Calif. [Bradford, M. M., 1976]) assay with gamma-globulin as standard. Nucleotide triphosphatase activity was measured by incubating the plasma membrane fractions (10 μg) at 30° C. in a final volume of 120 μl containing 6 mM NTP, 7 mM MgSO4 in 59 mM MES-Tris buffer pH 6.0-8.0. […] Other ATPase inhibitors (20 μM oligomycin, 20 μM aurovertin B or 100 μM vanadate were added to the reaction where indicated. After 30 min the reaction was stopped by adding 130 μl of a solution containing 1% (w/v) SDS, 0.6 M H2SO4, 1.2% (w/v) ammonium molybdate and 1.6% (w/v) ascorbic acid. Inorganic phosphate released from NTPs was measured at 750 nm after 10 min incubation at room temperature.

Cdr1p ATPase = molecular target: T2, Cdr1p ATPase (Candida albicans, UniProt P43071, E1416A/I916V/K1177E/L1021S/Q214E/T842S/Y427F); experiment: Oligomycin sensitive ATPase/NTPase activity of AD1002 plasma membranes; assay type: biochemical, C. albicans
T2 construct: expressed in transfected cells; host or cells: S. cerevisiae AD1-8u- with pKEN1002 integrated at the PDR5 locus (strain AD1002), plasma membrane fraction
T2 sequence (P43071 whole entry Q214E/Y427F/T842S/I916V/L1021S/K1177E/E1416A): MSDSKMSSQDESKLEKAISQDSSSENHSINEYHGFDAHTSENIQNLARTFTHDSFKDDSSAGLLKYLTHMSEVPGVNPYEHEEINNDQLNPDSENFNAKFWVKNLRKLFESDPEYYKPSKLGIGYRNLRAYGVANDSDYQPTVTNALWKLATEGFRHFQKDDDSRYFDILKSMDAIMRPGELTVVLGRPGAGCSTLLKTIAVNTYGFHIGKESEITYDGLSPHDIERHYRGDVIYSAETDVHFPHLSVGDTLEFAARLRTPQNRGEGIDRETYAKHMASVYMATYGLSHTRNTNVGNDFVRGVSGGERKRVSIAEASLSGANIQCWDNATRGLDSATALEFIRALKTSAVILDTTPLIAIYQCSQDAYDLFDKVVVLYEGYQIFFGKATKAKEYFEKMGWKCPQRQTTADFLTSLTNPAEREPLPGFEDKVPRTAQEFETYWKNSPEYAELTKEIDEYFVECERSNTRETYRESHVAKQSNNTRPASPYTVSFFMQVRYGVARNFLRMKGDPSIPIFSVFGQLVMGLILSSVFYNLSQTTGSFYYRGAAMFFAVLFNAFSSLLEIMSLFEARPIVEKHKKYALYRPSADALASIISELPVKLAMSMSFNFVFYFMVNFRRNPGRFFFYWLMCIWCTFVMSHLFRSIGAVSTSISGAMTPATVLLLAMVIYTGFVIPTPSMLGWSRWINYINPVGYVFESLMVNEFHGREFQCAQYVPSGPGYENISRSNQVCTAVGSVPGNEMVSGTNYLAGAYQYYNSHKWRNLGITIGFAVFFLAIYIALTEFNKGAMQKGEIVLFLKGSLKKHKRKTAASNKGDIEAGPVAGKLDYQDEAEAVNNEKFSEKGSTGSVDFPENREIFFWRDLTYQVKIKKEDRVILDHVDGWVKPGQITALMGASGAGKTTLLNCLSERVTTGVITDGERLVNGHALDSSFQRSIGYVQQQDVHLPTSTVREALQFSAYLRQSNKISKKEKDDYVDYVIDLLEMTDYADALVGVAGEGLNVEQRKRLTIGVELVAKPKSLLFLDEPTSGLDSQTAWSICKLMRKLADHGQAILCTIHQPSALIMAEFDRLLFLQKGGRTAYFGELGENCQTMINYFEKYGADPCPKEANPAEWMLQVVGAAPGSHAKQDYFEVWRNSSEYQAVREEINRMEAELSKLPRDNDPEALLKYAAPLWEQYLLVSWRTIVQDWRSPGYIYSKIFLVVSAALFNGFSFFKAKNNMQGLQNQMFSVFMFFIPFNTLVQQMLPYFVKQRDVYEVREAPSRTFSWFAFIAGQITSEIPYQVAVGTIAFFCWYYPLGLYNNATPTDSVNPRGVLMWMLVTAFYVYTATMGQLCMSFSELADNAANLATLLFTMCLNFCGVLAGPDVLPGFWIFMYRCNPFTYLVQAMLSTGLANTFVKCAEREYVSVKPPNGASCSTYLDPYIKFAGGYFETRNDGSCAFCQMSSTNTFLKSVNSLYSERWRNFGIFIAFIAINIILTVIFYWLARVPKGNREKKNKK
Description: Membrane fractions were isolated from S. cerevisiae AD1002 (▪) or parental AD1-8u^− cells (●). ATPase assays were carried out at 30° C. for 30 min, as described in Materials and methods for Example 2. The oligomycin-sensitive activity was determined as the difference in ATPase activity in the presence and absence of 20 μM oligomycin. […] The results are the means (+/−SD) of four determinations carried out on two membrane preparations.
(B) Inhibition profile with KN20 on the oligomycin-sensitive Cdr1p ATPase activity of plasma membranes from AD1002 minus the oligomycin-sensitive ATPase activity of plasma membranes from the isogenic AD1-8u^− strain.
Yeast were grown in YEPD, pH 5.5 at 30° C. until they reached late-exponential phase of growth (OD600 nm=7), washed twice in ice-cold distilled water, and incubated on ice for 30 min to minimize glucose-stimulated Pma1p activity. Cells were resuspended in homogenising medium (50 mM Tris pH 7.5, 2 mM EDTA and 1 mM phenylmethylsulfonyl fluoride) and disrupted using a Braun Homogeniser. Cell debris and unbroken cells were removed by centrifuging at 2,000×g at 4° C. for 10 min. A crude membrane fraction was isolated from the cell-free supernatant by centrifuging at 30,000×g at 4° C. for 45 min. Plasma membranes were prepared by centrifugation of the supernatant obtained after selective precipitation of mitochondria at pH 5.2 as described previously (Goffeau, A. and Dufour, J. P., 1988). The plasma membranes were resuspended in 10 mM Tris pH 7.0, 0.5 mM EDTA and 20% [v/v] glycerol and stored at −80° C. Protein was determined using a micro-Bradford (Bio-Rad Laboratories, Hercules, Calif. [Bradford, M. M., 1976]) assay with gamma-globulin as standard. Nucleotide triphosphatase activity was measured by incubating the plasma membrane fractions (10 μg) at 30° C. in a final volume of 120 μl containing 6 mM NTP, 7 mM MgSO4 in 59 mM MES-Tris buffer pH 6.0-8.0. To eliminate possible contributions from nonspecific phosphatases, vacuolar, or mitochondrial ATPases, 0.2 mM ammonium molybdate, 50 mM KNO3 and 10 mM NaN3, respectively, were included in assays (Monk B C, et al, 1991). Other ATPase inhibitors (20 μM oligomycin, 20 μM aurovertin B or 100 μM vanadate were added to the reaction where indicated. After 30 min the reaction was stopped by adding 130 μl of a solution containing 1% (w/v) SDS, 0.6 M H2SO4, 1.2% (w/v) ammonium molybdate and 1.6% (w/v) ascorbic acid. Inorganic phosphate released from NTPs was measured at 750 nm after 10 min incubation at room temperature.

C. glabrata CBS138 = experiment: Checkerboard chemosensitisation to fluconazole; assay type: cell-based
Description: (§1) Checkerboard drug susceptibility assays were used to measure the chemosensitisation of cells to fluconazole by test compounds such as Pdr5p inhibitors. Fluconazole concentration in the CSM-URA medium was varied in one dimension (between 0 and 80 μg/ml) and the concentration of the test compound was varied in the second dimension (between 0 and 40 μM). Cell inocula, growth conditions and the optical determination of growth were identical to standard liquid MIC determinations. The assays were conducted in 6 by 6 well arrays centred in a 96 well microtitre plate using buffered CSM-URA medium at pH 7.0, with fluconazole and/or peptide included in each well at the indicated concentration.

[1] = test system: S. cerevisiae AD12345678u-; experiment: Checkerboard chemosensitisation to fluconazole; assay type: cell-based
Description: as §1

[2] = test system: S. cerevisiae AD124567 (Pdr5p); experiment: Checkerboard chemosensitisation to fluconazole; assay type: cell-based
Description: (A) Checkerboard drug susceptibility assay of AD124567 in the presence of the indicated concentrations of fluconazole and KN20. (B) Disk drug susceptibility assay of AD124567. This assay was conducted, as described in Materials and methods for example 4, in the absence or presence of fluconazole (120 μg/ml), and in the presence of (1) KN0 (47 nanomole), (2) KN20 (47 nanomole) or (0) control amounts of DMSO applied to disks
as §1

C. albicans ATCC10261 = experiment: Checkerboard chemosensitisation to fluconazole; assay type: cell-based
Description: (§2) (A) Checkerboard drug susceptibility assay of AD1002. This assay was conducted as described in Materials and methods in the presence of the indicated concentrations of fluconazole and KN20. (B) Disk drug susceptibility assay of AD1002. This assay was conducted, as described in Materials and methods for Example 4, in the absence or presence of 5 μg/ml fluconazole, with (1) KN0 (12 nanomole), (2) KN20 (12 nanomole) or (0) control amounts of DMSO applied to the disks. (C) Checkerboard drug susceptibility assay of ATCC 10261. This assay was conducted, as described in Material and methods for Example 4, in the presence of the indicated concentrations of fluconazole and KN20. D indicates cell death as measured by a failure to recover any colony forming units when samples from microtitre plate wells were cultured on solid YPD medium.
as §1

[3] = test system: S. cerevisiae AD1002 (CaCdr1p); experiment: Checkerboard chemosensitisation to fluconazole; assay type: cell-based
Description: as §2, §1

[4] = test system: S. cerevisiae AD-BEN^R (Ben^Rp); experiment: Checkerboard chemosensitisation to fluconazole; assay type: cell-based
Description: (§3) The assays were conducted, as described in Materials and methods for Example 4, in the presence of the indicated concentrations of fluconazole and KN20. D indicates cell death as measured by a failure to recover any colony forming units when samples from microtitre plate wells were cultured on solid YPD medium.
as §1

[5] = test system: S. cerevisiae AD-ERG11 (Erg11p); experiment: Checkerboard chemosensitisation to fluconazole; assay type: cell-based
Description: as §3, §1

D-octapeptide NH2-Asn-Trp-Trp-Lys-Val-Arg-Arg-Arg-CONH2 with a single 4-methoxy-2,3,6-trimethylbenzenesulphonyl (Mtr) substituent on one tryptophan sidechain; Pdr5p inhibitor [KN20]
IC50 (Pdr5p ATPase; plasma membranes from AD124567 overexpressing Pdr5p, pH 7.5, read-out: 150 for oligomycin sensitive ATPase activity): ~3 µM
IC50 (Cdr1p ATPase; AD1002 plasma membranes, read-out: 150 for oligomycin sensitive ATPase activity): ~8 µM
Chemosensitising concentration KN20 (C. glabrata CBS138; C. glabrata CBS138): 40 µM
Fold-sensitisation by KN20 (For FCZ MIC) (C. glabrata CBS138; C. glabrata CBS138): 4 fold
Chemosensitising concentration KN20 ([1]; S. cerevisiae AD12345678u-): 7.5 µM
Fold-sensitisation by KN20 (For FCZ MIC) ([1]; S. cerevisiae AD12345678u-): 2 fold
Chemosensitising concentration KN20 ([2]; AD124567 (Pdr5p)): 20 µM
Fold-sensitisation by KN20 (For FCZ MIC) ([2]; AD124567 (Pdr5p)): 10 fold
KN20 concentration that chemosensitised the Pdr5p overexpressing strain to fluconazole ([2]; pH 7): 30 µM
Chemosensitising concentration KN20 (C. albicans ATCC10261; C. albicans ATCC10261): 80 µM
Fold-sensitisation by KN20 (For FCZ MIC) (C. albicans ATCC10261; C. albicans ATCC10261, resistant tail eliminated): 64^a fold
growth of AD1002 with KN20 alone ([3]; 10 μM KN20, without fluconazole, pH 7.0): completely resistant
growth of AD1002 with fluconazole plus KN20 ([3]; 10 μg/ml fluconazole plus 10 μM KN20): completely abolished growth
growth of AD1002 with KN20 alone ([3]; 20 μM peptide alone, 48 h): did not affect overall growth
Chemosensitising concentration KN20 ([3]; AD1002 (CaCdr1p)): 10 µM
Fold-sensitisation by KN20 (For FCZ MIC) ([3]; AD1002 (CaCdr1p)): 4 fold
Chemosensitising concentration KN20 [4]: 20 µM
Fold-sensitisation by KN20 (For FCZ MIC) [4]: 16 fold
Chemosensitising concentration KN20 ([5]; AD-ERG11 (Erg11p)): 20 µM
Fold-sensitisation by KN20 (For FCZ MIC) ([5]; AD-ERG11 (Erg11p)): 8 fold

OC(Cn1cncn1)(Cn1cncn1)c1ccc(F)cc1F [fluconazole]
effect on oligomycin sensitive Pdr5p ATPase activity (Pdr5p ATPase; in vitro): does not affect
effect on oligomycin sensitive Cdr1p ATPase activity (Cdr1p ATPase; in vitro): does not affect
Chemosensitising concentration FCZ (C. glabrata CBS138): 20 µg/mL
Chemosensitising concentration FCZ [1]: 0.125 µg/mL
Chemosensitising concentration FCZ [2]: 60 µg/mL
Chemosensitising concentration FCZ (C. albicans ATCC10261): 2 µg/mL
Chemosensitising concentration FCZ ([3]; AD1002 (CaCdr1p), with KN20): 10 µg/mL
Chemosensitising concentration FCZ ([4]; with KN20): 3.75 µg/mL
Chemosensitising concentration FCZ [5]: 0.25 µg/mL
